The results in this text go back to patent US10266495B2, “Phenyl quinolinone derivatives as mutant-isocitrate dehydrogenase inhibitors” (FORMA TM2, Inc., priority 2014, dated 2019).

As a reminder, the IC50 is the concentration that gives 50% inhibition.

Bounds are passed on as bounds.

Test [1] deals with IDH1-R132H recombinant protein (Homo sapiens, UniProt O75874, R132H). In words: IDH1-R132H enzymatic assay (NADPH consumption, diaphorase/resazurin readout). The test is classed as biochemical. Conditions: read-out: Enzyme IDH1 R132H IC50 Range. The method, boiled down:
(§1)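 Compound was preincubated 15 min at 25 °C with recombinant IDH1-R132H (30 nM) or IDH1-R132C (10 nM) enzyme solution in 50 mM Tris pH 7.5, 150 mM NaCl, 5 mM MgCl2, 0.1% BSA and 0.01% Triton X-100. A solution of 2 mM α-ketoglutarate and 20 μM NADPH was then added for 45 min at 25 °C. Remaining NADPH was read by diaphorase/resazurin, and IC50 came from a four-parameter logistic fit of NADPH-consumption inhibition.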
(In general: Resazurin is reduced to fluorescent resorufin, in cell work by metabolically active cells.)

Test [2] has as its system HCT116 isogenic IDH1-R132H mutant cells. As to the kind of experiment: Cellular 2-HG assay using HCT116 mutant IDH1 cells (R132H). The class given is cell-based. Conditions: Homo sapiens, HCT-116; cellular 2-HG inhibition, 24 hours, RapidFire mass spectrometry; read-out: HCT116 IDH1 R132H IC50 Range.
For test [3], the target named is IDH1-R132C recombinant protein (Homo sapiens, UniProt O75874, R132C). In words: IDH1-R132C enzymatic assay (NADPH consumption, diaphorase/resazurin readout). Conditions: read-out: Enzyme IDH1 R132C IC50 Range. The test is classed as biochemical. An outline of the steps:
as §1

In test [4] the test system is HCT116 isogenic IDH1-R132C mutant cells. In words: Cellular 2-HG assay using HCT116 mutant IDH1 cells (R132C). The test is classed as cell-based. Conditions: Homo sapiens, HCT-116; cellular 2-HG inhibition, 24 hours, RapidFire mass spectrometry; read-out: HCT116 IDH1 R132C IC50 Range.

Sequence of IDH1-R132H recombinant protein (O75874 whole entry R132H): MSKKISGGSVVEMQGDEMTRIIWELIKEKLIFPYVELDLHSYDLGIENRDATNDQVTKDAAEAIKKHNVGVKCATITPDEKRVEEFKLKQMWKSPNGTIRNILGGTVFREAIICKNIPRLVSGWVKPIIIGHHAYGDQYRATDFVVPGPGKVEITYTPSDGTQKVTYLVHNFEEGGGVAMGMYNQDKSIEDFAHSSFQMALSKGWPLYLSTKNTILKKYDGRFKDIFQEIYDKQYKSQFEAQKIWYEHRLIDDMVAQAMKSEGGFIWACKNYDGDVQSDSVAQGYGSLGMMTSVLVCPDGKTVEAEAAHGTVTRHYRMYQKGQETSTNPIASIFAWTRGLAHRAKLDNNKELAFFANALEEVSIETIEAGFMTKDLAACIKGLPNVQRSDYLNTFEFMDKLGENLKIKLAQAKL
Sequence of IDH1-R132C recombinant protein (O75874 whole entry R132C): as the sequence (O75874 whole entry R132H) above, with H132C counted along it

As for `COc1cc(NCc2cc3cc(Cl)ccc3[nH]c2=O)ccc1C#N` [Compound I-7, 4-{[(6-chloro-2-oxo-1,2-dihydroquinolin-3-yl)methyl]amino}-2-methoxybenzonitrile], the IC50 in test [1] was 100 to 1000 nM; in test [2] it was 100 to 1000 nM; in test [3] it was over 1000 nM; in test [4], over 1000 nM.
With `COc1cc(N[C@@H](C)c2cc3cc(Cl)ccc3[nH]c2=O)ccc1C#N` [Compound I-2, 4-{[(1S)-1-(6-chloro-2-oxo-1,2-dihydroquinolin-3-yl)ethyl]amino}-2-methoxybenzonitrile], the IC50 in test [1] is 10 to 100 nM; in test [2] it was under 10 nM; in test [3] it was 100 to 1000 nM; in test [4], 100 to 1000 nM.
On to `COc1cc(NCc2cc3cc(Cl)c(OCCCN(C)C)cc3[nH]c2=O)ccc1C#N` [Compound I-82, 4-[({6-chloro-7-[3-(dimethylamino)propoxy]-2-oxo-1,2-dihydroquinolin-3-yl}methyl)amino]-2-methoxybenzonitrile], for which the values for the IC50 in test [1] and in test [3] were 100 to 1000 nM and over 1000 nM, respectively.
As for `COc1cc(NCc2cc3cc(Cl)c(OCCCN4CCCC4)cc3[nH]c2=O)ccc1C#N` [Compound I-83, 4-[({6-chloro-2-oxo-7-[3-(pyrrolidin-1-yl)propoxy]-1,2-dihydroquinolin-3-yl}methyl)amino]-2-methoxybenzonitrile], the IC50 was 10 to 100 nM in test [1] and over 1000 nM in test [3].
Turning to `COc1cc(NCc2cc3cc(Cl)c(OCCN4CCN(S(C)(=O)=O)CC4)cc3[nH]c2=O)ccc1C#N` [Compound I-64, 4-[({6-chloro-7-[2-(4-methanesulfonylpiperazin-1-yl)ethoxy]-2-oxo-1,2-dihydroquinolin-3-yl}methyl)amino]-2-methoxybenzonitrile], the IC50 in test [1] was 10 to 100 nM; in test [3], 100 to 1000 nM.
As to `COc1cc(NCc2cc3cc(Cl)c(OCc4nccn4C)cc3[nH]c2=O)ccc1C#N` [Compound I-78, 4-[({6-chloro-7-[(1-methyl-1H-imidazol-2-yl)methoxy]-2-oxo-1,2-dihydroquinolin-3-yl}methyl)amino]-2-methoxybenzonitrile], the IC50 in test [1] lay within 10 to 100 nM; in test [3], 100 to 1000 nM.
For `COc1cc2[nH]c(=O)c(CNc3ccc(C#N)c(OC)c3)cc2cc1Cl` [Compound I-21, 4-{[(6-chloro-7-methoxy-2-oxo-1,2-dihydroquinolin-3-yl)methyl]amino}-2-methoxybenzonitrile], the half-inhibitory concentration (IC50) in test [1] and in test [3] was 100 to 1000 nM throughout.
`COc1cc(NCc2cc3cc(Cl)c(OCCN(C)C)cc3[nH]c2=O)ccc1C#N` [Compound I-61, 4-[({6-chloro-7-[2-(dimethylamino)ethoxy]-2-oxo-1,2-dihydroquinolin-3-yl}methyl)amino]-2-methoxybenzonitrile]: the IC50 in test [1] is 10 to 100 nM; in test [3], over 1000 nM.
The like results for `COc1cc(NCc2cc3cc(Cl)c(OCCc4ccncc4)cc3[nH]c2=O)ccc1C#N` [Compound I-81, 4-[({6-chloro-2-oxo-7-[2-(pyridin-4-yl)ethoxy]-1,2-dihydroquinolin-3-yl}methyl)amino]-2-methoxybenzonitrile] were, in that order, 10 to 100 nM and over 1000 nM.
The matching figures for `COc1cc(NCc2cc3cc(Cl)c(OCC4CCOCC4)cc3[nH]c2=O)ccc1C#N` [Compound I-63, 4-({[6-chloro-7-(oxan-4-ylmethoxy)-2-oxo-1,2-dihydroquinolin-3-yl]methyl}amino)-2-methoxybenzonitrile]: 10 to 100 nM and over 1000 nM.
The like results for `COc1cc(NCc2cc3cc(Cl)cc(C)c3[nH]c2=O)ccc1C#N` [Compound I-95, 4-{[(6-chloro-8-methyl-2-oxo-1,2-dihydroquinolin-3-yl)methyl]amino}-2-methoxybenzonitrile] were, in that order, 100 to 1000 nM and over 1000 nM.
As to `COc1cc(NCc2cc3cc(Cl)c(OCC4CCCCN4C)cc3[nH]c2=O)ccc1C#N` (centres unmarked) [Compound I-72, 4-[({6-chloro-7-[(1-methylpiperidin-2-yl)methoxy]-2-oxo-1,2-dihydroquinolin-3-yl}methyl)amino]-2-methoxybenzonitrile], the values for the IC50 in test [1] and in test [3] were 10 to 100 nM and over 1000 nM, respectively.
The matching figures for `COc1cc(NCc2cc3cc(Cl)c(OCCc4ccccn4)cc3[nH]c2=O)ccc1C#N` [Compound I-80, 4-[({6-chloro-2-oxo-7-[2-(pyridin-2-yl)ethoxy]-1,2-dihydroquinolin-3-yl}methyl)amino]-2-methoxybenzonitrile]: 10 to 100 nM and over 1000 nM.
The like results for `COc1cc(NCc2cc3cc(C)ccc3[nH]c2=O)ccc1-n1cnnn1` [Compound I-16, 3-({[3-methoxy-4-(1H-1,2,3,4-tetrazol-1-yl)phenyl]amino}methyl)-6-methyl-1,2-dihydroquinolin-2-one] were, in that order, 100 to 1000 nM and over 1000 nM.
The matching figures for `COc1cc(NCc2cc3cc(Cl)c(OCc4cnccn4)cc3[nH]c2=O)ccc1C#N` [Compound I-76, 4-({[6-chloro-2-oxo-7-(pyrazin-2-ylmethoxy)-1,2-dihydroquinolin-3-yl]methyl}amino)-2-methoxybenzonitrile]: 10 to 100 nM and over 1000 nM.
Regarding `COc1cc(NCc2cc3cc(Cl)c(OCc4ccccc4)cc3[nH]c2=O)ccc1C#N` [Compound I-71, 4-({[7-(benzyloxy)-6-chloro-2-oxo-1,2-dihydroquinolin-3-yl]methyl}amino)-2-methoxybenzonitrile], the half-inhibitory concentration (IC50) in test [1] was 10 to 100 nM; in test [3], over 1000 nM.
Consider `COc1cc(NC(C)c2cc3cc(Cl)c(OCc4ccccn4)cc3[nH]c2=O)ccc1C#N` (centres unmarked) [Compound I-5, 4-({1-[6-chloro-2-oxo-7-(pyridin-2-ylmethoxy)-1,2-dihydroquinolin-3-yl]ethyl}amino)-2-methoxybenzonitrile], for which the IC50 in test [1] was 10 to 100 nM; in test [3] it was 100 to 1000 nM.
